Literature values in patent US12274789B2, “Oral compositions comprising methylprednisolone sodium succinate” (LABOMED PHARMACEUTICAL COMPANY S.A., priority 2018, dated 2025).

Conditions: versus prednisolone

In the case of `C[C@H]1C[C@@H]2[C@H]([C@@H](O)C[C@@]3(C)[C@H]2CC[C@]3(O)C(=O)COC(=O)CCC(=O)[O-])[C@@]2(C)C=CC(=O)C=C12.[Na+]` [methylprednisolone sodium succinate, pregna-1,4-diene-3,20dione,21-(3-carboxy-1-oxopropoxy)-11,17-dihydroxy-6-methyl-monosodium salt, (6α, 11β)], the “anti-inflammatory potency, ratio to prednisolone” value is given as 5 to 4.
